Legend:
gastrocnemius muscle = assay: Streptozotocin diabetes model of muscle atrophy: FoxO3 mRNA and miR-182 in gastrocnemius muscle; type: in vivo; conditions: rats, STZ 125 mg/kg single intravenous injection, third day; for decrease of miR-182 in muscle: vs controls
Procedure: (§1) FoxO3 mRNA (Panels A and C) and miR-182 (Panels B and D) were measured in either cells treated with Dex (1 μM) for 6 h (Panels A and B) or in gastrocnemius muscles of either control or streptozotocin-injected, acutely diabetic rats (Panels C and D). Results are reported as the mean±SEM of the fold-change of the respective control values.
Whether there is a similar relationship between FoxO3 and miR-182 expression was investigated in vivo in skeletal muscle during atrophy. STZ-induced diabetes mellitus causes muscle atrophy and responses (e.g., increased atrogin-1 expression) that are consistent with FoxO3 activation. Therefore, FoxO3 expression was evaluated during STZ-induced diabetes mellitus by measuring FoxO3 mRNA. FoxO3 mRNA was increased 75% (FIG. 2D) whereas the level of miR-182 was decreased 43% (P<0.05) (FIG. 2D).
Male rats (˜150 gm) received a single intravenous injection of STZ (125 mg/kg) in citrate buffer. STZ-injected and control rats were pair-fed and on the third day after injection the animals were anesthetized, and the gastrocnemius muscle was harvested. Food was withheld during the night before the tissue harvest to avoid the confounding influences of variable food intake on skeletal muscle protein metabolism. All animal studies were approved by the Emory Institutional Animal Care and Use Committee (IACUC).

C2C12 myotubes [1] = assay: FoxO3 mRNA and intracellular miR-182 in C2C12 myotubes treated with Dex to induce atrophy; type: cell-based, Mouse; conditions: Dex 1 μM, 6 hours
Procedure: as §1
To test this, C2C12 myotubes were treated with dexamethasone (Dex), a synthetic glucocorticoid, which induces atrophy, in part, by increasing FoxO3 activity in C2C12 myotubes. […] Simultaneously, the amount of intracellular miR-182 decreased 44% (FIG. 2B).
Mouse C2C12 myoblasts (American Type Culture Collection, Manassas, Va.) were cultured in growth media [Dulbecco modified Eagle medium plus 10% fetal bovine serum (Atlanta Biologicals, Lawrenceville, Ga.) and 1% penicillin and streptomycin (Invitrogen, Carlsbad, Calif.)] and studied between passage 3 and 7. Myoblasts were grown to ˜95% confluence in a 6-well plate and then differentiated into myotubes by replacing growth media with differentiation media (DMEM supplemented with 2% fetal bovine serum and 1% PS) for 3 days. In some experiments, myotubes were treated with 1 μM Dex for 6 hours before being harvested.

C2C12 myotubes [2] = assay: miR-182 in media exosomes released from C2C12 myotubes after Dex; type: cell-based, Mouse; conditions: Dex 6 h
Procedure: Fresh differentiation media containing 100 nM Dex or vehicle was added to myotubes for 6 h. Afterwards, RNA was prepared from isolated media exosomes and miR-182, along U6 controls, was measured.
One mechanism by which microRNAs are protected from degradation is through incorporation into protective exosomes. This has led some to propose that the relative abundance patterns of microRNAs in various tissues and fluids as well as exosomes and other microvesicles are a reflection of underlying pathophysiological processes. Dex administration enhances the exosomal packaging and release of two atrophy-related microRNAs (miR-1 and miR-23a) into the media of C2C12 myotubes. This led us to test whether miR-182 is incorporated into exosomes that are released from myotubes. The amount of miR-182 in exosomes, normalized to U6 small nuclear RNA, is increased 95% in exosomes following Dex treatment to myotubes (FIG. 4). […]
To quantify exosomal microRNA, exosome-associated RNA, including microRNA, was isolated using a urine exosome RNA isolation kit (Norgen Biotek, Thorolod, ON, Canada) according to the manufacturer's instructions for isolating RNA from extracellular fluids. Subsequent quantitative PCR (qPCR) was performed.

**Q.** Which “decrease of miR-182 in muscle” value (gastrocnemius muscle; P<0.05) does the source give for `CN(N=O)C(=O)N[C@H]1C(O)O[C@H](CO)[C@@H](O)[C@@H]1O` (mixture of isomers) [streptozotocin] here?
**A.** 44%

**Q.** What about the “decrease of miR-182 in muscle” value (gastrocnemius muscle; P<0.05, listed as STZ) of the same compound?
**A.** 43%

**Q.** What about the “increase of FoxO3 mRNA in muscle” value (gastrocnemius muscle; vs pair-fed controls) of the same compound?
**A.** 75%

**Q.** With `C[C@@H]1C[C@H]2[C@@H]3CCC4=CC(=O)C=C[C@]4(C)[C@@]3(F)[C@@H](O)C[C@]2(C)[C@@]1(O)C(=O)CO` [Dexamethasone, dexamethasone] as the compound, how does the “decrease of intracellular miR-182” value (C2C12 myotubes [1]) read?
**A.** 63%

**Q.** And the “increase of FoxO3 mRNA” value (C2C12 myotubes [1])?
**A.** 133%

**Q.** What about the “decrease of intracellular miR-182” value (C2C12 myotubes [1]; listed as dexamethasone) of the same compound?
**A.** 44%

**Q.** What about the “increase of miR-182 in exosomes, normalized to U6 small nuclear RNA” value (C2C12 myotubes [2]) of the same compound?
**A.** 95%

— US20140309280A1, “ASSAYS FOR MICRO-RNA-182 AS A BIOMARKER FOR MUSCLE ATROPHY AND THERAPEUTIC APPLICATIONS” (EMORY UNIVERSITY, priority 2013, published 2014)
